From BindingDB's records for doi:10.1021/jm020911e (Universit&#224, 2002)

biological target: Adenosine receptor A3 (Bos taurus); test: Displacement of [125I]AB-MECA from Adenosine A3 receptor in bovine cortical membranes in the presence of 20 nM DPCPX.

Row | Ki [nM] | SMILES
1 | 2250 | Cc1cn2c(NC3CCCC3)nc(-c3ccccc3)nc2n1 [Cyclopentyl-(7-methyl-2-phenyl-imidazo[1,2-a][1,3,5]triazin-4-yl)-amine]
2 | 40 | CC(=O)Nc1nc(-c2ccccc2)nc2nc(-c3ccccc3)cn12 [N-(2,7-Diphenyl-imidazo[1,2-a][1,3,5]triazin-4-yl)-acetamide]
3 | 231 | CC(=O)Nc1nc(-c2ccccc2)nc2nc(C)cn12 [N-(7-Methyl-2-phenyl-imidazo[1,2-a][1,3,5]triazin-4-yl)-acetamide]

The next lines start with the compound.

Row | SMILES | Ki [nM]
4 | CC(C)c1cn2c(NC(=O)C3CCCC3)nc(-c3ccccc3)nc2n1 [Cyclopentanecarboxylic acid (7-isopropyl-2-phenyl-imidazo[1,2-a][1,3,5]triazin-4-yl)-amide] | 17.4
5 | CCC(=O)CNc1nc(-c2ccccc2)nc2nc(C)cn12 [1-(7-Methyl-2-phenyl-imidazo[1,2-a][1,3,5]triazin-4-ylamino)-butan-2-one] | > 10000
6 | CC(=O)CNc1nc(-c2ccccc2)nc2nc(C)cn12 [1-(7-Methyl-2-phenyl-imidazo[1,2-a][1,3,5]triazin-4-ylamino)-propan-2-one] | > 10000
7 | O=C(Nc1nc(-c2ccccc2)nc2nc(-c3ccccc3)cn12)C1CCCC1 [Cyclopentanecarboxylic acid (2,7-diphenyl-imidazo[1,2-a][1,3,5]triazin-4-yl)-amide] | 1240
